{"source": "patent US20200247897A1", "about": "“THERAPEUTIC ANTIBODIES BASED ON MUTATED IGG HEXAMERS” (GENMAB B.V., priority 2017, published 2020)", "key": {"[1]": {"test_system": "COLO 205 human colon cancer cells", "test": "3-days CellTiter-Glo viability assay, COLO 205", "assay_type": "cell-based", "protocol": "COLO 205 cells were harvested by pooling the culture supernatant containing non-adherent cells and trypsinized adherent cells. HCT 116 cells were harvested by trypsinization. […] In samples that were treated with a combination of two antibodies, the total antibody concentration in the assay was the same as in the samples that were treated with single antibodies. […] From the kit, 20 μL luciferin solution reagent was added per well and mixed by shaking the plate for 2 minutes at 500 rpm. Next, plates were incubated for 1.5 hours at 37° C. 100 μL supernatant was transferred to a white OptiPlate-96 (Perkin Elmer, Cat nr 6005299) and luminescence was measured on an EnVision Multilabel Reader (PerkinElmer). Data were analyzed and plotted using non-linear regression (sigmoidal dose-response with variable slope) using GraphPad Prism software.\nThe antibodies with and without the E430G mutation were tested as single agent and as combinations of the two non-crossblocking antibodies. COLO 205 cells were harvested as described in Example 8."}, "[2]": {"test_system": "HCT-15 human colon cancer cells", "test": "Subcutaneous HCT-15 colon cancer xenograft model", "assay_type": "in vivo, BALB/c nude mice", "settings": "Example 30: 0.5, 2, 10 mg/kg i.v., twice Q7D", "protocol": "(§1) The care and use of animals during the study were conducted in accordance with the regulations of the Association for Assessment and Accreditation of Laboratory Animal Care (AAALAC). Tumor volumes were measured twice weekly in two dimensions using a caliper, and the volume was expressed in mm^3 using the formula: V=0.5 a×b2 where a and b are the long and short diameters of the tumor, respectively.\nas §1, with “a×b^2” for “a×b2”"}, "[3]": {"test_system": "BxPC-3 pancreatic cancer cells", "test": "3-days CellTiter-Glo viability assay, BxPC-3"}, "[4]": {"test_system": "PANC-1 pancreatic cancer cells", "test": "3-days CellTiter-Glo viability assay, PANC-1", "assay_type": "cell-based, human", "settings": "10 μg/mL"}, "[5]": {"test_system": "HCT-15 colon cancer cells", "test": "3-days CellTiter-Glo viability assay, HCT-15", "settings": "4 μg/mL"}, "[6]": {"test_system": "SK-MES-1 human lung cancer cells", "test": "Subcutaneous SK-MES-1 lung cancer xenograft model", "settings": "Example 33: 0.5, 2, 10 mg/kg i.v., twice Q7D", "quoted_text": "The cells were maintained in vitro as a monolayer culture in MEM medium supplemented with 10% fetal bovine serum and 0.01 mM NEAA at 37° C. in an atmosphere of 5% CO2 in air. At day 0, adherent cells in an exponential growth phase were harvested by trypsin-EDTA treatment. 5×10^6 cells were injected in a volume of 100 μL PBS into the flank of 6-8 weeks old female BALB/c mice (Shanghai Laboratory Animal Center). Mouse handling and tumor volume measurements were performed as described in Example 30. Twenty-one days after tumor inoculation, the mean tumor size reached 161 mm^3 and mice were assigned into groups using randomized block design and treatments were started. Mice were treated twice according to a Q7D regimen by i.v. injection of 200 μg (10 mg/kg), 40 μg (2 mg/kg) or 10 μg (0.5 mg/kg) antibody in 10 μL PBS per g body weight. Mice in the control group were treated in parallel with 200 μg (10 mg/kg) IgG1-b12. After tumor inoculation, welfare of the animals was checked daily and tumor volumes were measured twice weekly.\nCell culturing, tumor cell inoculation, mice handling, tumor outgrowth measurements and endpoint determination were performed as described in Example 33."}, "[7]": {"test_system": "SW480 human colon cancer cells", "test": "Subcutaneous SW480 colon cancer xenograft model", "assay_type": "in vivo, NOD/SCID mice", "settings": "0.5, 2, 10 mg/kg i.v., twice Q7D", "protocol": "1×10^7 cells were injected in a volume of 200 μL PBS with Matrigel (1:1) into the flank of 6-8 weeks old female NOD/SCID mice (Beijing HFK Bioscience)."}, "[8]": {"test_system": "COLO 205 human colon cancer cells", "test": "Subcutaneous COLO 205 colon cancer xenograft model", "assay_type": "in vivo, SCID mice", "protocol": "The in vivo anti-tumor efficacy of different anti-DR5 antibodies and the combination of DR5-01+DR5-05 antibodies with hexamerization enhancing mutation was evaluated in a subcutaneous model with COLO 205 human colon cancer cells. At day 0, cells were harvested by pooling the culture supernatant containing non-adherent cells and trypsinized adherent cells. 3×10^6 cells were injected in a volume of 200 μL PBS into the flank of 6-11 weeks old female SCID mice (C.B-17/IcrHan®Hsd-Prkdc^scid; Harlan). All experiments and animal handlings were approved by the local authorities, and were conducted according to all applicable international, national and local laws and guidelines. Tumor development was monitored at least twice per week by caliper (PLEXX) measurement as 0.52×(length)×(width)^2. […] Mice were treated by intraperitoneal (i.p.) injection of 100 μg antibody in 200 μL PBS on day 6 and 13 (5 mg/kg per dose). To check for correct antibody administration, blood samples were obtained for IgG serum determination three days after the first dose. […] Tumors were measured until 16 weeks after tumor inoculation.\nMice were treated by intravenous (i.v.) injection of 40 μg (2 mg/kg), 10 μg (0.5 mg/kg) or 2 μg (0.1 mg/kg) antibody in 100 μL PBS on day 10. Mice in the control group were treated with 40 μg (2 mg/kg) IgG1-b12. Tumors were measured until 17 weeks after tumor inoculation.\nAt day 9, the average tumor volume was measured and the mice were sorted into groups with equal tumor size variance. Mice were treated by intravenous (i.v.) injection of 10 μg (0.5 mg/kg) antibody in 200 μL PBS on day 9. Mice in the control group were treated with 10 μg (0.5 mg/kg) IgG1-b12."}, "[9]": {"settings": "10 μg/mL, F(ab')2 goat-anti-human IgG, listed as IgG1-DR5-CONA"}}, "note": "Entries after “also recorded” stand apart in the source; their conditions may differ."}
{"substance": "IgG1-CONA: reference anti-DR5 antibody based on U.S. Pat. No. 7,521,048 B2 and WO2010/138725", "values": [{"measurement": "killing of COLO 205 cells in presence of Fc crosslinker", "setting": "[1]; [9]", "result": "Fc crosslinking induced killing; also recorded: only induced killing in the presence of Fc crosslinker"}, {"measurement": "killing of COLO 205 cells in absence of Fc crosslinker", "setting": "[1]; 10 μg/mL, adherent cells", "result": "did not induce target cell killing in the absence of an Fc crosslinker"}, {"measurement": "killing of adherent (attached) COLO 205 cells (% viable cells)", "setting": "[1]; cells adhered overnight before adding antibody, dilution series", "result": "not able to kill attached COLO 205 colon cancer cells"}, {"measurement": "tumor growth (mean tumor volume)", "setting": "[2]", "result": "did not"}, {"measurement": "effect of secondary crosslinker on killing of BxPC-3 cells", "setting": "[3]; 4 μg/mL", "result": "enhanced by the presence of a secondary crosslinker"}, {"measurement": "killing of BxPC-3 cells in absence of Fc crosslinker", "setting": "[3]; 10 μg/mL", "result": "did not induce target cell killing in the absence of an Fc crosslinker"}, {"measurement": "killing of BxPC-3 cells in presence of Fc crosslinker", "setting": "[3]; [9]", "result": "Fc crosslinking induced killing; also recorded: only induced killing in the presence of Fc crosslinker"}, {"measurement": "killing of PANC-1 cells in absence of Fc crosslinker", "setting": "[4]", "result": "did not induce target cell killing in the absence of an Fc crosslinker"}, {"measurement": "effect of secondary crosslinker on killing of HCT15 cells", "setting": "[5]", "result": "enhanced by the presence of a secondary crosslinker"}, {"measurement": "tumor growth (mean tumor volume) versus IgG1-b12", "setting": "[6]", "result": "only had a significant effect compared to IgG1-b12 at 10 mg/kg (p<0.01) and 2 mg/kg (p<0.05) but not at 0.5 mg/kg"}, {"measurement": "tumor growth (mean tumor volume) versus IgG1-b12", "setting": "[7]", "result": "only better than IgG1-b12 at the highest doses (10 mg/kg and 2 mg/kg p<0.01), but not at 0.5 mg/kg"}, {"measurement": "tumor growth (mean tumor volume)", "setting": "[8]; Example 26: 5 mg/kg i.p. on day 6 and 13", "result": "strongly inhibited tumor growth compared to IgG1-b12, but did not result in complete tumor abrogation"}, {"measurement": "tumor growth progression versus IgG1-b12 (Kaplan-Meier, cutoff >500 mm^3)", "setting": "[8]; Example 27: 0.5 mg/kg and 2 mg/kg", "result": "significantly inhibited tumor growth progression compared to the negative control antibody IgG1-b12"}, {"measurement": "tumor regression (mean tumor volume)", "setting": "[8]; Example 27: single dose 0.5 mg/kg i.v. day 10", "result": "regression was incomplete with recurring tumor outgrowth in all mice"}, {"measurement": "tumor regression (mean tumor volume)", "setting": "[8]; Example 27: single dose 2 mg/kg i.v. day 10", "result": "almost all (7/8) mice"}]}
